# Test results as given in article PMC9958325 (Nature Communications, 2023).
# “And” between values parts separate entries of the source, which are not always exact repeats. Identical values can stand only once. Like-named read-outs stand apart in the source and are kept apart here.
# What was measured:
# SARS-CoV-2^WK-521 = assay: microbe, parasite or virus in culture; type: cell-based; design: EC95, individual assays / EC95, Average: unit: µM
# human calpain = molecular target: T1, human calpain (Homo sapiens, UniProt P07384); assay: Human calpain activity assay; type: biochemical; settings: for %inhibition against humanCalpain: triplicate
# T1 sequence (P07384 2-714): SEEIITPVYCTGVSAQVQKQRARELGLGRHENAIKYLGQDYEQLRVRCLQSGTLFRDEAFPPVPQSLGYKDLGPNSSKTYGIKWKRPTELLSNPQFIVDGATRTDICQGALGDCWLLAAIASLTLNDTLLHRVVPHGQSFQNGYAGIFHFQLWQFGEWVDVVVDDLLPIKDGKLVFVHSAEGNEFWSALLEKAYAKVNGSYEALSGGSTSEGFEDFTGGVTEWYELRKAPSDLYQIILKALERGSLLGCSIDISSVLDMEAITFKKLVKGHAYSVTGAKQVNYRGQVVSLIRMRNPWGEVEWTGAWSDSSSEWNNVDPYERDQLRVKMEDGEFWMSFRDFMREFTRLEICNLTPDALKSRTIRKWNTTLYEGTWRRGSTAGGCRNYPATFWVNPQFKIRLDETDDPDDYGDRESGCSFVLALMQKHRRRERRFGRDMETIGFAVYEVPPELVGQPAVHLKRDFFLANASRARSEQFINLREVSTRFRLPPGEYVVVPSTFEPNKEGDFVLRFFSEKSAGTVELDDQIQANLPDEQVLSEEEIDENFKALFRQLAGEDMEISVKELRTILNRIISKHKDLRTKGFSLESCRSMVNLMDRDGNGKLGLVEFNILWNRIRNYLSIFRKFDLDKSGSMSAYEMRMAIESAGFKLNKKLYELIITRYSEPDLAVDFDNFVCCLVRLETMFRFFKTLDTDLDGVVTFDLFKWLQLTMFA
# T1 sequence (P04632 1-268 partner): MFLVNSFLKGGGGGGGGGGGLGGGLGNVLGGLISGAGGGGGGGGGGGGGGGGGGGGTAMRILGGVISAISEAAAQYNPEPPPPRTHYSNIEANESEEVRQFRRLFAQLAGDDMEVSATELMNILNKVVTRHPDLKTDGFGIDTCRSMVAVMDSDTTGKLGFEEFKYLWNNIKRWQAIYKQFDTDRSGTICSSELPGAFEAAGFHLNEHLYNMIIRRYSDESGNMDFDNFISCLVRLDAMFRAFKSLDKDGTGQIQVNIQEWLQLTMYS
# HeLa-ACE2-TMPRSS2 cells = assay: Intracellular concentrations of compounds (LC/MS), HeLa-ACE2-TMPRSS2 cells; settings: 6 h; for Intracellular amount, individual: listed as TKB-0245
# [1] = Pharmacokinetic study in PXB-mice (human liver-chimeric); settings: for Vdss / AUC: mean ± S.E.; for AUC: n=3; for Plasma concentration: i.v. 10 mg/kg, individual mice
smiles,measurement,setting,value
CC(C)(C)[C@H](NC(=O)C(F)(F)F)C(=O)N1C[C@H]2[C@@H]([C@H]1C(=O)N[C@@H](C[C@@H]1CCNC1=O)C(=O)c1nc3c(F)cccc3s1)C2(C)C [TKB245],"EC95, Average",SARS-CoV-2^WK-521,0.53
same,"EC95, individual assays",SARS-CoV-2^WK-521,0.59 and 0.09 and 0.55 and 0.89
same,SARS-CoV2 RNA VeroE6 cell-based assay EC95,SARS-CoV-2^WK-521,530 nM and 530 ± 330 nM
same,EC50,"SARS-CoV-2^WK-521; read-out: EC50, Average",31.2 nM
same,EC50,"SARS-CoV-2^WK-521; read-out: EC50, VeroE6 + 2 µM CP100356",1 ± 1 nM
same,EC50,"SARS-CoV-2^WK-521; read-out: EC50, VeroE6 with CP100356, Average",1.56 nM
same,EC50,"SARS-CoV-2^WK-521; read-out: EC50, VeroE6 with CP100356, individual assays",1.4 nM and 2.37 nM and 0.9 nM
same,EC50,"SARS-CoV-2^WK-521; read-out: EC50, individual assays",40 nM and 20 nM and 50 nM and 15 nM
same,EC50,SARS-CoV-2^WK-521; read-out: SARS-CoV2 RNA VeroE6 cell-based assay EC50,30 ± 20 nM
same,Effect on human calpain (in words),human calpain,"neither of human cysteine enzymes, cathepsin L and calpain, were significantly affected"
same,%inhibition against humanCalpain,human calpain; 0.000128 µM,0%
same,%inhibition against humanCalpain,human calpain; 0.00064 µM,0%
same,%inhibition against humanCalpain,human calpain; 0.0032 µM,0%
same,%inhibition against humanCalpain,human calpain; 0.08 µM,0%
same,%inhibition against humanCalpain,human calpain; 0.4 µM,0%
same,%inhibition against humanCalpain,human calpain; 2 µM,9.6344% and 1.813%
same,IC50,"human calpain; 60 minute incubation, mean ± 1 S.D., n=3, read-out: IC50, human calpains",> 2000 nM
same,"Intracellular amount, avg","HeLa-ACE2-TMPRSS2 cells; Hela ACE2 TMPRSS2, 10uM",0.603 pmol(total)
same,"Intracellular amount, individual","HeLa-ACE2-TMPRSS2 cells; Hela ACE2 TMPRSS2, 10uM",0.6360 pmol(total) and 0.5701 pmol(total)
same,"Intracellular amount, avg","HeLa-ACE2-TMPRSS2 cells; Hela ACE2 TMPRSS2, 50uM",4.167 pmol(total)
same,"Intracellular amount, individual","HeLa-ACE2-TMPRSS2 cells; Hela ACE2 TMPRSS2, 50uM",4.585 pmol(total) and 3.749 pmol(total)
same,"Intracellular amount, avg","HeLa-ACE2-TMPRSS2 cells; Hela ACE2 TMPRSS2, 100uM",8.85 pmol(total)
same,"Intracellular amount, individual","HeLa-ACE2-TMPRSS2 cells; Hela ACE2 TMPRSS2, 100uM",8.312 pmol(total) and 9.388 pmol(total)
same,Cmax,"[1]; N = 3 male PXB-mouse, 10 mg/kg p.o.","1,901¶ ng/mL"
same,T1/2,"[1]; N = 3 male PXB-mouse, 10 mg/kg, oral (p.o.) value for TKB245",3.82¶ h
same,t1/2,"[1]; PXB-mice, 10 mg/kg i.v.",1.25 h
same,Vdss,"[1]; PXB-mice, 10 mg/kg i.v.",0.0302 ± 0.00381 L/kg
same,AUC,"[1]; PXB-mice, 10 mg/kg i.v.",10700 ± 540 ng·h/mL
same,Vdss,"[1]; PXB-mice, 10 mg/kg p.o.",0.1941 ± 0.03543 L/kg
same,AUC,"[1]; PXB-mice, 10 mg/kg p.o.",5120 ± 430 ng·h/mL
same,Plasma concentration,"[1]; PXB-mice, 10 min",8436.5 ng/mL
same,Plasma concentration,"[1]; PXB-mice, 10 min, listed as TKB0245, 10 mg/kg",8433.5 ng/mL and 10627.1 ng/mL
same,Plasma concentration,"[1]; PXB-mice, 0.17 hr, listed as TKB0245, 10 mg/kg",8440 ng/mL and 8430 ng/mL and 10630 ng/mL
same,Plasma concentration,"[1]; PXB-mice, 60 min, listed as TKB0245, 10 mg/kg",2816 ng/mL and 2507.3 ng/mL and 3230 ng/mL
same,Plasma concentration,"[1]; PXB-mice, 1 hr, listed as TKB0245, 10 mg/kg",2820 ng/mL and 2510 ng/mL and 3230 ng/mL
same,Plasma concentration,"[1]; PXB-mice, 240 min, listed as TKB0245, 10 mg/kg",47 ng/mL and 52.3 ng/mL and 95 ng/mL
same,Plasma concentration,"[1]; PXB-mice, 4 hr, listed as TKB0245, 10 mg/kg",0.05 µg/ml (2×) and 0.09 µg/ml
same,Plasma concentration,"[1]; PXB-mice, 480 min, listed as TKB0245, 10 mg/kg",10.4 ng/mL and 14.8 ng/mL and 20 ng/mL
same,Plasma concentration,"[1]; PXB-mice, 8 hr, listed as TKB0245, 10 mg/kg",0.01 µg/ml (2×) and 0.02 µg/ml
